The nature of data set [1]: Tissue, plasma and GI content pharmacokinetics of tacrolimus, oral vs intra-cecal ingestible device delivery (Example 10). Type of data set: in vivo, Yorkshire-Cross farm swine. Conditions: female, Yorkshire-Cross, pig. On the procedure:
The primary objective of this study was to compare the tissue, plasma, rectal sample, and GI content pharmacokinetics of tacrolimus through oral versus intra-cecal ingestible device delivery in normal Yorkshire-Cross farm swine.
(§1) No further randomization procedure was employed.
Animals in Group 1 received an ingestible device containing 0.8 mL of vehicle solution (80% alcohol, 20% HCO-60). Animals in Group 2 received orally […] liquid formulation of tacrolimus at 4 mg/0.8 mL per animal (Prograf: 5 mg/mL). Animals in Group 3 received intra-cecally an ingestible device containing tacrolimus at 1 mg in 0.8 mL per ingestible device. Animals in Group 4 received intra-cecally an ingestible device containing tacrolimus at 2 mg in 0.8 mL per ingestible device. Animals in Group 5 received intra-cecally an ingestible device containing tacrolimus at 4 mg in 0.8 mL per ingestible device. To control for potential confounding effects of the surgery, all groups fast on Day −11 at least 24 hr before being subjected to anesthesia followed by surgical placements of a cecal port by a veterinary surgeon at Day −10. All animals were fasted for at least 12 hr prior to dosing on Day 1. Animals were dosed via either intra-cecal dosing (IC) or oral dosing (PO) at Day 1 (between […].). […]
Approximately 200˜400 mg of rectal content were collected, if available, with a fecal swab (Copan Diagnostics Nylon Flocked Dry Swabs, 502CS01). The fecal swab was pre-weighed and weighed after collection in the collection tube (Sterile Tube and Cap No Media, PFPM913S), and the sample weight was recorded. […]
For tissue necropsy, small intestine fluid and cecal fluid were collected separately from all the animals into two separate square plastic bottles, and stored at −20° C. The length and diameter of the cecum and the colon was measured from one animal in each group and recorded for reference. […] All samples were weighed, and the tissue sample weights were recorded. […] Around 3 grams of the total punched sample were collected into a pre-weighed 15-mL conical tube, and the tissue weight was recorded. […]

A short description of data set [2]: Pharmacokinetic study of oral vs intra-cecal administration of tacrolimus (Example 13). Type of data set: in vivo, Yorkshire-Cross farm swine. The following applies: female, Yorkshire-Cross.
Source text: as §1

For data set [3], the system named is cytokines involved in the JAK/STAT signaling pathway. Conditions: PO or IC administration; 1 h and 3 h post-treatment.

Where a name gives a salt, the structure may show the parent alone. Read-outs that look alike come from different tables or passages of the source. Where only a bound is given, the exact number is not on record here.

Experimental findings from patent US20210363233A1, “TREATMENT OF A DISEASE OF THE GASTROINTESTINAL TRACT WITH AN IL-12/IL-23 INHIBITOR” (Progenity, Inc., priority 2018, published 2021) are described below.

As usually defined, the Cmax is the highest concentration seen after dosing. By AUC(0-t) is commonly meant the area under the concentration-time curve up to a stated or last time point. As to `C=CC[C@@H]1/C=C(\C)C[C@H](C)C[C@H](OC)[C@H]2O[C@@](O)(C(=O)C(=O)N3CCCC[C@H]3C(=O)O[C@H](/C(C)=C/[C@@H]3CC[C@@H](O)[C@H](OC)C3)[C@H](C)[C@@H](O)CC1=O)[C@H](C)C[C@@H]2OC` [tacrolimus], the Cmax came out at 3.53 ± 3.84 ng/mL in data set [1] (in vivo, 0.09 mg/kg, Route PO, Dose (mg · kg) 0.09) and 3.53 ± 3.84 ng/mL in data set [2] (pig, blood, Route PO, Dosage 0.09 mg/kg). In addition, the concentration at 12 h was 9.57 ± 0.291 ng/mL in data set [1] (in vivo, po, Trough (12 hr)); under 10 ng/mL in data set [1] (whole blood, other: oral and intra-cecal (all groups), all groups (FIGS. 87-89 and Table 29), read-out: blood trough concentrations). The molecule also came in with an AUC(0-t) in data set [2] (pig, in vivo, po, 0.09 mg/kg) of 16.8 ± 3.64 ng·h/mL. Also, the “Ratio Tissue(mean) (ng/g)/Trough(12 hr)(ng/mL)” value in data set [2] (pig, in vivo, po, 0.09 mg/kg) was determined as 0; in data set [2] (swine, in vivo, po, 0.09 mg/kg), 0.

Regarding `C[C@@H]1CCN(C(=O)CC#N)C[C@@H]1N(C)c1ncnc2[nH]ccc12` [tofacitinib citrate], the “IL-6 expression in plasma” value in data set [3] is on record as “inhibition of IL-6 expression was observed”.
